Test results as given in patent US9034299B2, “ATF4 inhibitors and their use for neural protection, repair, regeneration, and plasticity” (priority 2007, dated 2015).

Legend:
Assay type in all cases: cell-based, mouse
[1] = system: embryonic cortical neurons; assay: Cell viability of primary cortical neurons (MTT assay, live/dead assay)
Description: (§1) FIG. 1. Amino acid depletion and thapsigargin treatment induce ATF4 and protect embryonic cortical neurons from oxidative stress-induced cell death. (A) Cortical neuronal cultures (1 d in vitro) were treated with a vehicle control (shown as C), 10 mM of the glutamate analogue HCA, 1 μg/ml arginase, 1 μM thapsigargin, 1 μg/ml arginase and 10 mM HCA, or 10 mM HCA and 1 μM thapsigargin. 24 h later, cell viability was determined using the MTT assay. The graph depicts mean (compared with control)±SD calculated from three separate experiments for each group (n=25). *, P<0.05 from HCA-treated cultures by the Kruskal-Wallis test followed by Dunn's multiple comparisons test. (B) Live/dead assay of cortical neuronal cultures (2 d in vitro). Live cells were detected by uptake and trapping of calcein-AM (green fluorescence). […] Bar, 50 μm. […] Cells were harvested at the indicated time points, and nuclear extracts were separated using gel electrophoresis and immunodetected using an antibody against ATF4. YY1 was monitored as a loading control. The immunoblot is a representative example of three experiments.
(§2) FIG. 5. ATF4 has a negative impact on the neuronal glutathione metabolism. (A) ATF4^+/+ (♦) and ATF4^−/− (▴) cortical neurons were treated with 10 mM HCA. At the indicated time points, cells were trypsinized, washed, and pelleted. Reduced glutathione (GSH) was determined in the cell pellets using HPLC electrochemical detection. Data are from three separate cultures, and each data point was measured in duplicate. Graph depicts mean±SD. (B) Schematic overview over cysteine uptake and glutathione synthesis and their inhibition. (C) ATF4^+/+ and ATF4^−/− cortical neurons were treated with a vehicle control (shown as C) or 200 μM BSO. 24 h later, cell viability was determined using the MTT assay. The graph depicts mean (compared with control)±SD calculated from five separate experiments for each group (n=46 ATF4^+/+ and 58 ATF4^−/−). *, P<0.05 from untreated ATF4^+/+ cultures by the Kruskal-Wallis test followed by Dunn's multiple comparisons test. The difference between treated and untreated ATF4^−/− neurons was not significant (n.s.). (D) Live/dead assay displaying untreated and BSO-treated ATF4^+/+ and ATF4^−/− neurons. Bar, 50 μm. […] Cytoplasmic extracts were separated using gel electrophoresis and immunodetected using an antibody against γGCS. Total eIF2α was monitored as a loading control. (F) ATF4^+/+ (♦) and ATF4^−/− (▪) cortical neurons were treated with 200 μM BSO. At the indicated time points, cells were trypsinized, washed, and pelleted. GSH was determined in the cell pellets using HPLC electrochemical detection. Data are from three separate cultures, and each data point was measured in duplicate. Graph depicts mean±SD. (G) ATF4^+/+ cortical neurons were infected with GFP (♦), ATF4WT (▪), and ATF4ΔRK (▴) adenoviruses at an MOI of 100. At the indicated time points after infection, cells were trypsinized, washed, and pelleted. GSH was determined in the cell pellets using HPLC electrochemical detection. The graph depicts mean±SD calculated from three separate experiments for each group, and each data point was measured in duplicate. The value obtained from noninfected neurons was arbitrarily defined as 100%. […] The graph depicts mean (compared with control) ±SD calculated from five separate experiments for each group (n=29). *, P<0.05 from untreated neurons overexpressing ATF4WT by the Kruskal-Wallis test followed by Dunn's multiple comparisons test. […]

[2] = system: reduced glutathione (GSH) in cortical neurons; assay: Reduced glutathione (GSH) in cortical neurons by HPLC electrochemical detection; conditions: 10 mM HCA or 200 μM BSO, time course; for glutathione concentration, ATF4+/+ neurons: ATF4+/+ cortical neurons; for glutathione concentration, ATF4−/− neurons: ATF4−/− cortical neurons
Description: as §2, with “BSO. […]” for “BSO. At the indicated time points, cells were trypsinized, washed, and pelleted.”, “duplicate. […]” for “duplicate. Graph depicts mean±SD. (G) ATF4^+/+ cortical neurons were infected with GFP (♦), ATF4WT (▪), and ATF4ΔRK (▴) adenoviruses at an MOI of 100. At the indicated time points after infection, cells were trypsinized, washed, and pelleted.”, “duplicate.” for “duplicate. The value obtained from noninfected neurons was arbitrarily defined as 100%.”
Concentrations of reduced glutathione were measured using HPLC (PerkinElmer) equipped with an eight-channel coulometric array detector (ESA, Inc.). […] Glutathione concentrations of supernatant fractions were determined by injecting 5-μl aliquots onto an Ultrasphere 5 u, 4.6×250 mm, C18 column (Beckman Coulter), and eluting with a mobile phase of 50 mM NaH2PO4, 0.05 mM octane sulfonic acid, 1.5% acetonitrile (pH 2.62) at a flow rate of 1 ml/min. Peak areas were analyzed using software from ESA, Inc. Intracellular generation of ROS was determined by DCF. Cortical neurons were seeded in 96-well fluorescence plates. […] Cells were washed with HBSS and read on a plate reader (Fluorometer; MDS Analytical Technologies) at 485-nm excitation and 530-nm emission wavelengths.

[3] = system: ATF4; assay: ATF4 immunoblot of nuclear extracts from cultured cortical neurons; conditions: 10 mM HCA, 1 μg/ml arginase or 1 μM thapsigargin, versus vehicle control
Description: as §1

[4] = system: TRB3 mRNA; assay: Real-time PCR of TRB3 mRNA expression in cortical neurons; conditions: 10 mM HCA; ATF4-dependent (ATF4+/+ versus ATF4−/− neurons)

SMILES | glutathione concentration, ATF4+/+ neurons [2] | glutathione concentration, ATF4−/− neurons [2] | ATF4 protein expression/accumulation [3] | other results
COc1ccc(O)c(C(C)(C)C)c1 [BHA, butylated hydroxyanisol] |  |  |  | neuronal viability in neurons overexpressing ATF4WT ([1]; ATF4+/+ cortical neurons infected with ATF4WT adenovirus, MOI 100, 10 μM BHA): significantly increased neuronal viability; protection against additional HCA toxicity in neurons overexpressing ATF4WT ([1]; ATF4WT adenovirus, MOI 100, 10 μM BHA plus 10 mM HCA): protected against the additional toxic effect of HCA treatment
CCCCS(=N)(=O)CCC(N)C(=O)O (stereo not drawn) [BSO, buthionine sulfoximine] | decline in the concentration of glutathione | distinctly slower reduction of glutathione |  | cell viability, ATF4+/+ neurons ([1]; 200 μM BSO, 24 h, ATF4+/+ cortical neurons): resulted in cell death; cell viability, ATF4−/− neurons ([1]; 200 μM BSO, 24 h, ATF4−/− cortical neurons): essentially resistant
NC(CCS(=O)(=O)O)C(=O)O (stereo not drawn) [HCA, homocysteate] | progressive loss of glutathione | markedly slower decline in glutathione concentration | increases the expression of ATF4 | TRB3 mRNA expression [4]: induced
C/C=C(/C)C(=O)O[C@H]1C(C)=C2[C@H]([C@@H]1OC(=O)CCCCCCC)[C@@](C)(OC(C)=O)C[C@H](OC(=O)CCC)[C@@]1(O)[C@H]2OC(=O)[C@@]1(C)O [thapsigargin] |  |  | accumulation of ATF4 protein | protection from oxidative stress-induced neuronal cell death ([1]; 10 mM HCA, 24 h, 1 μg/ml arginase or 1 μM thapsigargin, MTT and live/dead assay): nearly complete protection from neuronal cell death
